The text below walks through data of patent US8093301B2, “Anti-allergic agent” (Meiji Co., Ltd., priority 2005, dated 2012).

In assay [1] the test system is basophil-like cells (RBL-2H3). Description: β-hexosaminidase release inhibition test (degranulation of IgE-sensitised, DNP-BSA-stimulated cells). In kind it is cell-based. The conditions noted are these: for IC50: read-out: 50% β-hexosaminidase release inhibitory concentration (IC50). The method, then:
In the Examples, the degree of cell degranulation was assessed through determination of β-hexosaminidase activity. In a specific procedure, basophil-like cells (RBL-2H3, Human Science Laboratory Resource Bank) were suspended in a Dulbecco's modified Eagle's medium (DMEM, product of Gibco) containing a 10% fetal calf serum, and the suspension was incubated overnight at 37° C. in a 96-well plate (2.5×10^5 cells/mL) in the presence of 0.1 μg/mL anti-dinitrophenyl (DNP)-IgE antibody (product of SIGMA).
The thus-treated basophil-like cells (RBL-2H3) were washed with phosphate buffer (PBS) and further incubated at 37° C. for 30 minutes in the presence of each test substance (Examples 1 to 6 and Comparative Examples 1 to 3) at a predetermined concentration. The concentrations at which incubation was performed were 0.1, 0.2, 0.3, 0.4, and 0.5 μM (ACNQ); 20, 30, 40, 60, and 80 μM (DHNA); 60, 70, 80, 90, and 100 μM (2-methyl-1,4-naphthoquinone (vitamin K3)); 10, 20, 30, 40, and 50 μM (4-amino-2-methyl-1-naphthol (vitamin K5)); 10, 20, 30, 40, and 50 μM (1,4-naphthoquinone); 3, 4, 5, 6, and 7 μM (2-amino-3-chloro-1,4-naphthoquinone); 50 and 100 μM (vitamin K1); 25, 50, and 100 μM (vitamin K2); and 50 and 100 μM (1,3-naphthalenediol).
The thus-incubated basophil-like cells (RBL-2H3) were washed with PBS, and further incubated at 37° C. for one hour in the presence of 1-μg/mL DNP-BSA (product of SSL). After completion of incubation, a supernatant was recovered from each well, and the activity of β-hexosaminidase contained in each supernatant was determined. The activity of β-hexosaminidase remaining in the cells was also determined through solubilizing the remaining cells with 0.1% polyoxyethylene(10)octylphenyl ether/DMEM.
Each of the thus-obtained supernatants and cell solubilized liquids was added to a 96-well plate (50 μL/well), and 2 mM p-nitrophenyl N-acetyl-β-D-glucosaminide (product of SIGMA) serving as a substrate was added thereto (50 μL/well). After incubation at 37° C. for two hours, a suppressor (1M Tris, pH: 9.0) was added thereto (150 μL/well), and the absorbance at 415 nm was measured by means of a plate reader. For assessing degranulation, percent β-hexosaminidase release (%) was calculated through the following formula: Percent β-hexosaminidase release (%)=100×(OD415 of supernatant)/(OD415 of supernatant+OD415 of solubilized cells).
The β-hexosaminidase activity of supernatant was determined as described above. The β-hexosaminidase activity of a supernatant of basophil-like cells (RBL-2H3) incubated in the presence of each of the test substances of Examples 1 to 6 and Comparative Examples 1 to 3) was measured, whereby 50% β-hexosaminidase release inhibitory concentration (IC50) was calculated.

In a further assay the test system is PCA reaction. The assay is described as follows: PCA reaction, Evans Blue leakage to ear auricles. The assay is classed as in vivo. The settings on record: ICR mice, 100 μg/kg perorally one hour before PCA induction, compared with CMC sodium-administered group, P<0.05 t-test (FIG. 3). How it is done: ICR mice (female, 6-week old) were preliminarily bred and grouped into the following three groups such that these groups had the same average body weight: Group 1, 0.5% carboxy-methyl-cellulose (CMC) sodium-administered group (Comparative Example 4); Group 2, ACNQ (100 μg/kg)-administered group (Example 7); and Group 3, PCA-non-induced group (Comparative Example 5). Groups 1 and 2 each included 8 mice, and Group 3 included 4 mice. Group 1 (CMC sodium-administered group) served as a control group with respect to Group 2 (ACNQ-administered group).
To each of the ICR mice of Groups 1 and 2, an anti-DNP-IgE antibody (100 ng/body) was intradermally administered through an ear auricle. Instead of the anti-DNP-IgE antibody, physiological saline was administered in a similar manner to each of the ICR mice of Group 3. […]
Subsequently, one hour after administration of each test substance, DNP-bound BSA (0.25 mg/body) serving as an antigen and Evans Blue were intravenously administered to each of the ICR mice of Groups 1 to 3, to thereby induce PCA. […] The absorbance of each extract at 620 nm was determined, to thereby calculate the Evans Blue level leaked to the ear auricle.

Assay [2] has as its system basophil-like cells (RBL-2H3). The settings on record: Non-Patent Document 2; cited from earlier work.
[3] abbreviates: Rattus norvegicus, RBL-2H3, 0.5 h, RBL-2H3, 30 minutes incubation with test substance, DNP-BSA stimulation.
[4] abbreviates: Rattus norvegicus, RBL-2H3, 0.5 h, RBL-2H3, same IC50 expressed in μg/mL.
Where [5] appears, read: Rattus norvegicus, RBL-2H3, RBL-2H3, same IC50 expressed in μg/mL.
Setting [6] is: RBL-2H3, 30 minutes incubation with test substance, DNP-BSA stimulation.
Where [7] appears, read: RBL-2H3, same IC50 expressed in μg/mL.

Converted amounts (≈) assume the structure as drawn. “And” between values parts separate entries of the source, which are not always exact repeats. Identical values can stand only once. Counter-ions that a name gives are not always drawn. Like-named read-outs stand apart in the source and are kept apart here.

Consider `Oc1cc(O)c2ccccc2c1` [1,3-Naphthalenediol, 1,3-naphthalenediol, reference compound], for which the IC50 in assay [1] (Rattus norvegicus, RBL-2H3, 0.5 h) was > 100 µM and > 16 µg/mL.
Consider `O=C1C=CC(=O)c2ccccc21` [1,4-Naphthoquione, 1,4-naphthoquinone], for which the IC50 is ~30 µM in assay [1] (setting [3]), 4.7 mg/L in assay [1] (setting [4]) and 4.7 mg/L in assay [1] (setting [5]).
In the case of `NC1=C(Cl)C(=O)c2ccccc2C1=O` [2-Amino-3-chloro-1,4-naphthoquinone, 2-amino-3-chloro-1,4-naphthoquinone], the values for the IC50 in assay [1] (setting [3]), in assay [1] (setting [4]) and in assay [1] (setting [5]) were 6.8 µM, 1.4 mg/L and 1.4 mg/L, respectively.
On to `NC1=C(C(=O)O)C(=O)c2ccccc2C1=O` [ACNQ, 2-amino-3-carboxy-1,4-naphthoquinone], for which the “Evans Blue level leaked to the ear auricle” value with PCA reaction is “significantly lowered”. Moreover, the “percent β-hexosaminidase release, relative to that of sample containing no test substance (0 μM)” value in assay [1] (ACNQ concentration ≧0.4 μM (FIG. 1)) was “about 20%”. Moreover, the IC50 in assay [1] (setting [3]) worked out at 0.25 µM; in assay [1] (setting [4]), 0.0545 mg/L; in assay [1] (setting [5]) it was 0.0545 mg/L.
Turning to `O=C(O)c1cc(O)c2ccccc2c1O` [DHNA, 1,4-dihydroxy-2-naphthoic acid], in assay [1] (DHNA concentration ≧60 μM (FIG. 2)), the “percent β-hexosaminidase release, relative to that of sample containing no test substance (0 μM)” value is reported as “about 20%”. Moreover, the results for the IC50 in assay [1] (setting [3]), in assay [1] (setting [4]) and in assay [1] (setting [5]) were ~50 µM, 8.2 mg/L and 8.2 mg/L, respectively.
Regarding `CC1=C(C/C=C(\C)CCC[C@H](C)CCC[C@H](C)CCCC(C)C)C(=O)c2ccccc2C1=O` [Vitamin K1, phylloquione, reference compound], the IC50 in assay [1] (setting [6]) is > 100 µM. The “50% β-hexosaminidase release inhibitory concentration (IC50)” value in assay [1] (setting [7]) was “(>45.1 μg/mL)”.
Turning to `CC1=CC(=O)c2ccccc2C1=O` [Vitamin K3, 2-methyl-1,4-naphthoquinone], the IC50 is ~50 µM in assay [1] (setting [3]), 11.5 mg/L in assay [1] (setting [4]) and 11.5 mg/L in assay [1] (setting [5]).
Regarding `Cc1cc(N)c2ccccc2c1O` [Vitamin K5, 4-amino-2-methyl-1-naphthol], the IC50 in assay [1] (setting [3]) was ~30 µM; in assay [1] (setting [4]), 6.1 mg/L; in assay [1] (setting [5]), 6.1 mg/L.
`CN1CCC(=C2c3ccccc3CC(=O)c3sccc32)CC1` [ketotifen fumarate, 4-(1-methyl-4-piperidylidene-4H-benzo[4,5]-cyclohepta[1,2-b]-thiophen-10(9H)-one hydrogen fumarate]: in assay [2], the IC50 is 214 µM and the “IC50 to basophil-like cells (RBL-2H3)” value is 91 mg/L.
Consider `COc1ccc(C=CC(=O)Nc2ccccc2C(=O)O)cc1OC` [tranilast, N-(3,4-dimethoxycinnamoyl)anthranilic acid], for which, in assay [2], the IC50 is 492 µM and the “IC50 to basophil-like cells (RBL-2H3)” value is 161 mg/L (≈ 492 µM).
On to “menaquinone [Vitamin K2, reference compound]”, for which the IC50 in assay [1] (setting [6]) is > 100 µM. Besides, the “50% β-hexosaminidase release inhibitory concentration (IC50)” value in assay [1] (setting [7]) is recorded as “(>44 μg/mL)”.
